Biological target: T1, Recombinant human JARID1B/KDM5B (Homo sapiens, UniProt Q9UGL1)
T1 construct: purchased Active Motif 31432; host or cells: Sf9 insect cells
Assay: LANCE Ultra TR-FRET JARID1B (KDM5B) demethylase inhibition assay
Assay type: biochemical
Conditions: 0.1 uM of test-compounds, FLAG-JARID1B, 500 nM biotinylated H3K4me3 peptide substrate, 30 min at room temperature
Source text: FLAG-tagged JARID1B (also known as KDM5B) protein was screened against 49 compounds. For this compound screening, LANCE Ultra time-resolved fluorescence resonance energy transfer (TR-FRET) assay was employed using a europoium (Eu)-labeled antibody that can specifically recognize mono- or dimethylated peptides (H3K4me2/1) and ULight-streptavidin (ULight-SA), a small molecule fluorescent dye. When irradiated at 340 nm, the energy from the Eu donor is transferred to the ULight acceptor dye which, in turn, emits light primarily at 665 nm. The ratio between the intensity of primary emission at 665 nm and that of secondary emission at […] was used to quantify the level of lysine methylation. As JARID1B removes more methyl moieties from tri-methylated substrate peptides (H3K4me3), the ratio increases until the enzyme reaction is terminated. In case, therefore, the compounds disrupt the enzymatic activity completely, the ratio becomes equal to a background value.
Recombinant human JARID1B/KDM5B (accession number NP_006609) of molecular weight 179.9 KDa was expressed in Sf9 insect cells and contains an N-terminal FLAG tag. The enzyme was obtained from Active Motif (Catalog No. 31432). The tri-methylated histone substrate peptide of purity greater than 95% was a synthetic peptide in which the first 21 amino acids correspond to the human histone H3 sequence with three extra amino acids and a biotin motif (GGK-biotin) linked to the C-terminus [sequence: ART-K(Me3)-QTARKSTGGKAPRKQLA-GGK-biotin-OH], (AnaSpec, Fremont, Calif. Catalog. No. ANA-1413). The reference inhibitor compound tranylcypromine (or trans-2-phenylcyclopropylamine hydrochloride, also known as, 2-PCPA) was purchased from Sigma (St. Louis, Mo. Cat. no. P8511). ULight-labeled streptavidin (ULight-SA, Catalog no. TRF0102), Eu-W1024-labeled anti-methyl-Histone H3 Lysine 4 (H3K4me1-2) Antibody (Catalog no. TRF0402), and LANCE detection buffer 10× (Catalog no. CR97-100) were obtained from PerkinElmer (Montreal, Quebec, Canada). The TR-FRET experiments were carried out in white, low-volume 384-wellplates purchased from PerkinElmer (ProxiPlate_-384 Plus, Catalog no. 6008280).
The TR-FRET signal was measured in the presence both of the bio-H3K4me3 peptide and FLAG-JARID1B by detecting any H3K4me2/1 peptide produced in the assay system. Assays using only the bio-H3K4me2 peptide were served as a positive control. Robust enzymatic progressions were observed by using JARID1B at concentrations ranging from 10 to 30 nM. In a typical TR-FRET experiment, JARID1B was pre-incubated with or without 0.1 uM of test-compounds (containing 1% DMSO final) for 5 min. The enzymatic reactions were initiated by the addition of 500 nM biotinylated H3K4me3 peptide substrate plus 500 uM of 2-OG 25 uM Fe(II) and 2 mM ascorbate. The reaction buffer also contained 50 mM Hepes (pH7.5), 0.01% (v/v) Tween 20, and 50 mM NaCl. The reaction mixture was incubated for 30 min at room temperature before reading on an EnVision plate reader (PerkinElmer, Waltham, Mass.).

T1 sequence (Q9UGL1 whole entry): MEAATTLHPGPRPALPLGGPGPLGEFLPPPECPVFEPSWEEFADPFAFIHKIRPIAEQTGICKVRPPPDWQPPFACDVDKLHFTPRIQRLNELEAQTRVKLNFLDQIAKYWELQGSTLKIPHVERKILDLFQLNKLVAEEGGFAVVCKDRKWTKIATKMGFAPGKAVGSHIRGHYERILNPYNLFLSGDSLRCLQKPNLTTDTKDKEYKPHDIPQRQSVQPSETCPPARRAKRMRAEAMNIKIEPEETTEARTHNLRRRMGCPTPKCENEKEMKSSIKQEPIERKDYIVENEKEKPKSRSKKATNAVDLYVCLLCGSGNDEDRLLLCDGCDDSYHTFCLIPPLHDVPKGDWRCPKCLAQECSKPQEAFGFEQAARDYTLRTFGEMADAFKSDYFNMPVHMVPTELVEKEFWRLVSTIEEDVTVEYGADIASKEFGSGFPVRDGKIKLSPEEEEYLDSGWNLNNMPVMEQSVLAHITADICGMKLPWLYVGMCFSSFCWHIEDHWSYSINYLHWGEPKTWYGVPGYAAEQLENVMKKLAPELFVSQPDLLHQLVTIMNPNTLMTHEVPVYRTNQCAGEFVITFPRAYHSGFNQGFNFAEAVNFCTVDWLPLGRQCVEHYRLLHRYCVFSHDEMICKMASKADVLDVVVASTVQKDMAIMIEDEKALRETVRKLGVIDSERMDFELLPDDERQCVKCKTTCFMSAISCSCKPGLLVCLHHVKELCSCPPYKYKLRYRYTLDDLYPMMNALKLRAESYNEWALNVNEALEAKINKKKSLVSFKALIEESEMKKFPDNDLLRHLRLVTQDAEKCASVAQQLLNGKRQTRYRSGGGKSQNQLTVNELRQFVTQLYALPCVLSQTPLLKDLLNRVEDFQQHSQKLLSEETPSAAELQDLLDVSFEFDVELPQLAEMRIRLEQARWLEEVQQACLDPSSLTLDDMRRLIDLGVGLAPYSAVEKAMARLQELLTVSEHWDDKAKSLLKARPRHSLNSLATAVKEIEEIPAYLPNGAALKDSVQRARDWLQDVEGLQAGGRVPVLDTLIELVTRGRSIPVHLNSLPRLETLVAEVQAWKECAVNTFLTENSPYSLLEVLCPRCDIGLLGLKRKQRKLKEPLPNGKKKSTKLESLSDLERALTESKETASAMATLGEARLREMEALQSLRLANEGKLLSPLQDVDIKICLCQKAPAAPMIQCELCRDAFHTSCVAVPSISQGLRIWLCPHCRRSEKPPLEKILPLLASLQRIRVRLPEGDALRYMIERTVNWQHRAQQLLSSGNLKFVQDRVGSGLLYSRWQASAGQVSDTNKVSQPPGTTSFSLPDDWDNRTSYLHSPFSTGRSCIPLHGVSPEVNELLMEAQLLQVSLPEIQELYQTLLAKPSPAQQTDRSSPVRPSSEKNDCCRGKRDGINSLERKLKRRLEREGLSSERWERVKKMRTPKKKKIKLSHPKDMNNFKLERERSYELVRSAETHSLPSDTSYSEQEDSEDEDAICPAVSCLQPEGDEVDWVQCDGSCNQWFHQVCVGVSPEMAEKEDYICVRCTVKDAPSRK

`CCOC(=O)c1nc(-c2nccc3c(=O)[nH]cnc23)cs1` [Compound 62, ethyl 4-(4-oxo-3,4-dihydropyrido[3,4-d]pyrimidin-8-yl)thiazole-2-carboxylate] was tested, and the inhibition at 0.1 µM was less than 20%.
Work on `O=c1[nH]cnc2c(-c3cnn(CCO)c3)nccc12` [Compound 63, 8-(1-(2-hydroxyethyl)-1H-pyrazol-4-yl)pyrido[3,4-d]pyrimidin-4(3H)-one] yielded an inhibition at 0.1 µM of 20 to 50%.
`O=c1[nH]cnc2c(-c3cnn(Cc4ccccc4)c3)nccc12` [Compound 64, 8-(1-benzyl-1H-pyrazol-4-yl)pyrido[3,4-d]pyrimidin-4(3H)-one] gave an inhibition at 0.1 µM of 20 to 50%.
Work on `O=c1[nH]cnc2c(-c3cnn(CCN4CCOCC4)c3)nccc12` [Compound 65, 8-(1-(2-morpholinoethyl)-1H-pyrazol-4-yl)pyrido[3,4-d]pyrimidin-4(3H)-one] yielded an inhibition at 0.1 µM of 20 to 50%.
`O=c1[nH]c(COc2ccc(Cc3ccccc3)cc2)nc2c(-c3nccs3)nccc12` [Compound 66, 2-((4-benzylphenoxy)methyl)-8-(thiazol-2-yl)pyrido[3,4-d]pyrimidin-4(3H)-one] was tested, and the inhibition at 0.1 µM was less than 20%.
`O=c1[nH]c(COc2ccc(Cc3ccccc3)cc2)nc2c(-c3ccccn3)nccc12` [Compound 67, 2-((4-benzylphenoxy)methyl)-8-(pyridin-2-yl)pyrido[3,4-d]pyrimidin-4(3H)-one] was tested, and the inhibition at 0.1 µM was 20 to 50%.
In the case of `Nc1ncc(-c2nccc3c(=O)[nH]c(COc4ccc(Cc5ccccc5)cc4)nc23)s1` [Compound 68, 8-(2-aminothiazol-5-yl)-2-((4-benzylphenoxy)methyl) pyrido[3,4-d]pyrimidin-4(3H)-one], the inhibition at 0.1 µM is reported as less than 20%.
`Nc1ccn(-c2nccc3c(=O)[nH]c(COc4ccc(Cc5ccccc5)cc4)nc23)n1` [Compound 69, 8-(3-amino-1H-pyrazol-1-yl)-2-((4-benzylphenoxy)methyl) pyrido[3,4-d]pyrimidin-4(3H)-one] showed an inhibition at 0.1 µM of less than 20%.
In the case of `Cn1cnc(-c2nccc3c(=O)[nH]c(COc4ccc(Cc5ccccc5)cc4)nc23)c1` [Compound 70, 2-((4-benzylphenoxy)methyl)-8-(1-methyl-1H-imidazol-4-yl)pyrido[3,4-d]pyrimidin-4(3H)-one], the inhibition at 0.1 µM is reported as 20 to 50%.
With `Nc1nc(-c2nccc3c(=O)[nH]c(COc4ccc(Cc5ccccc5)cc4)nc23)cs1` [Compound 71, 8-(2-aminothiazol-4-yl)-2-((4-benzylphenoxy)methyl) pyrido[3,4-d]pyrimidin-4(3H)-one] the inhibition at 0.1 µM was no less than 50%.
With `C=CCNc1nc(-c2nccc3c(=O)[nH]c(COc4ccc(Cc5ccccc5)cc4)nc23)cs1` [Compound 72, 8-(2-(allylamino)thiazol-4-yl)-2-((4-benzylphenoxy)methyl) pyrido[3,4-d]pyrimidin-4(3H)-one] the inhibition at 0.1 µM was 20 to 50%.
Compound `O=c1[nH]c(COc2ccc(Cc3ccccc3)cc2)nc2c(-c3csc(Nc4ccccc4)n3)nccc12` [Compound 73, 2-((4-benzylphenoxy)methyl)-8-(2-(phenylamino)thiazol-4-yl)pyrido[3,4-d]pyrimidin-4(3H)-one] has an inhibition at 0.1 µM of less than 20%.
`O=c1[nH]c(COc2ccc(F)c(Cl)c2)nc2c(-c3nccs3)nccc12` [Compound 74, 2-((3-chloro-4-fluorophenoxy)methyl)-8-(thiazol-2-yl)pyrido[3,4-d]pyrimidin-4(3H)-one] gave an inhibition at 0.1 µM of 20 to 50%.
Work on `Nc1ncc(-c2nccc3c(=O)[nH]c(COc4ccc(F)c(Cl)c4)nc23)s1` [Compound 75, 8-(2-aminothiazol-5-yl)-2-((3-chloro-4-fluorophenoxy)methyl) pyrido[3,4-d]pyrimidin-4(3H)-one] yielded an inhibition at 0.1 µM of less than 20%.
`O=c1[nH]c(COc2ccc(F)c(Cl)c2)nc2c(-c3cc[nH]n3)nccc12` [Compound 76, 2-((3-chloro-4-fluorophenoxy)methyl)-8-(1H-pyrazol-3-yl)pyrido[3,4-d]pyrimidin-4(3H)-one] was tested, and the inhibition at 0.1 µM was less than 20%.
In the case of `Cn1cnc(-c2nccc3c(=O)[nH]c(COc4ccc(F)c(Cl)c4)nc23)c1` [Compound 77, 2-((3-chloro-4-fluorophenoxy)methyl)-8-(1-methyl-1H-imidazol-4-yl)pyrido[3,4-d]pyrimidin-4(3H)-one], the inhibition at 0.1 µM is reported as 20 to 50%.
`O=c1[nH]c(COc2ccc(F)c(Cl)c2)nc2c(-c3ccc(N4CCOCC4)nc3)nccc12` [Compound 78, 2-((3-chloro-4-fluorophenoxy)methyl)-8-(6-morpholinopyridin-3-yl)pyrido[3,4-d]pyrimidin-4(3H)-one] gave an inhibition at 0.1 µM of less than 20%.
`O=c1[nH]c(COc2ccc(F)c(Cl)c2)nc2c(-c3cnccn3)nccc12` [Compound 79, 2-((3-chloro-4-fluorophenoxy)methyl)-8-(pyrazin-2-yl)pyrido[3,4-d]pyrimidin-4(3H)-one] was tested, and the inhibition at 0.1 µM was 20 to 50%.
For `O=c1[nH]c(COc2ccc(F)c(Cl)c2)nc2c(-c3ccccn3)nccc12` [Compound 80, 2-((3-chloro-4-fluorophenoxy)methyl)-8-(pyridin-2-yl)pyrido[3,4-d]pyrimidin-4(3H)-one], the inhibition at 0.1 µM was 20 to 50%.
`O=c1[nH]c(COc2ccc(F)c(Cl)c2)nc2c(-c3csc(NCCO)n3)nccc12` [Compound 81, 2-((3-chloro-4-fluorophenoxy)methyl)-8-(2-((2-hydroxyethyl)amino)thiazol-4-yl)pyrido[3,4-d]pyrimidin-4(3H)-one] showed an inhibition at 0.1 µM of no less than 50%.
`O=c1[nH]c(COc2ccc(F)c(Cl)c2)nc2c(-c3csc(NCCN4CCOCC4)n3)nccc12` [Compound 82, 2-((3-chloro-4-fluorophenoxy)methyl)-8-(2-((2-morpholinoethyl)amino)thiazol-4-yl)pyrido[3,4-d]pyrimidin-4(3H)-one] was tested, and the inhibition at 0.1 µM was no less than 50%.
Work on `C[C@@H](O)CNc1nc(-c2nccc3c(=O)[nH]c(COc4ccc(F)c(Cl)c4)nc23)cs1` [Compound 83, (R)-2-((3-chloro-4-fluorophenoxy)methyl)-8-(2-((2-hydroxypropyl)amino)thiazol-4-yl)pyrido[3,4-d]pyrimidin-4(3H)-one] yielded an inhibition at 0.1 µM of no less than 50%.
In the case of `C[C@H](O)CNc1nc(-c2nccc3c(=O)[nH]c(COc4ccc(F)c(Cl)c4)nc23)cs1` [Compound 84, (S)-2-((3-chloro-4-fluorophenoxy)methyl)-8-(2-((2-hydroxypropyl)amino)thiazol-4-yl)pyrido[3,4-d]pyrimidin-4(3H)-one], the inhibition at 0.1 µM is reported as no less than 50%.
With `O=c1[nH]c(COc2ccc(F)c(Cl)c2)nc2c(-c3csc(NCC4CCCO4)n3)nccc12` (stereo not shown) [Compound 85, 2-((3-chloro-4-fluorophenoxy)methyl)-8-(2-(((tetrahydrofuran-2-yl)methyl)amino)thiazol-4-yl)pyrido[3,4-d]pyrimidin-4(3H)-one] the inhibition at 0.1 µM was no less than 50%.
Compound `COCCNc1nc(-c2nccc3c(=O)[nH]c(COc4ccc(F)c(Cl)c4)nc23)cs1` [Compound 86, 2-((3-chloro-4-fluorophenoxy)methyl)-8-(2-((2-methoxyethyl)amino)thiazol-4-yl)pyrido[3,4-d]pyrimidin-4(3H)-one] has an inhibition at 0.1 µM of no less than 50%.
In the case of `CN(C)CCNc1nc(-c2nccc3c(=O)[nH]c(COc4ccc(F)c(Cl)c4)nc23)cs1` [Compound 87, 2-((3-chloro-4-fluorophenoxy)methyl)-8-(2-((2-(dimethylamino)ethyl)amino)thiazol-4-yl)pyrido[3,4-d]pyrimidin-4(3H)-one], the inhibition at 0.1 µM is reported as no less than 50%.
Compound `NCCNc1nc(-c2nccc3c(=O)[nH]c(COc4ccc(F)c(Cl)c4)nc23)cs1` [Compound 88, 8-(2-((2-aminoethyl)amino)thiazol-4-yl)-2-((3-chloro-4-fluorophenoxy)methyl) pyrido[3,4-d]pyrimidin-4(3H)-one] has an inhibition at 0.1 µM of no less than 50%.
`CN1CCN(CCNc2nc(-c3nccc4c(=O)[nH]c(COc5ccc(F)c(Cl)c5)nc34)cs2)CC1` [Compound 89, 2-((3-chloro-4-fluorophenoxy)methyl)-8-(2-((2-(4-methylpiperazin-1-yl)ethyl)amino)thiazol-4-yl)pyrido[3,4-d]pyrimidin-4(3H)-one] was tested, and the inhibition at 0.1 µM was no less than 50%.

Reference: US20170057955A1, “Pyridopyrimidinone Compounds for Modulating the Catalytic Activity of Histone Lysine Demethylases (KDMs)” (Dong-A Socio Holdings Co., Ltd., priority 2015, published 2017)
